In the NIST ThermoML archive (doi:10.1016/j.fluid.2005.06.011):

Experiments:
[1] = 308.15 K; 101.33 kPa; Liquid; Vibrating tube method
[2] = refractive index (Na D-line) (dimensionless); conditions: 308.15 K; 101.33 kPa; Liquid; Standard Abbe refractometry
[3] = xn = mol fraction of the nth substance listed; conditions: 308.15 K, 101.3 kPa, Liquid
[4] = excess molar enthalpy (molar enthalpy of mixing); xn = mol fraction of the nth substance listed; conditions: 308.15 K, 101.3 kPa, Liquid

Cc1ccccc1C [1,2-dimethylbenzene]
Conditions	mass density [kg/m3]	refractive index
[1]	867.41	–
[2]	–	1.5031

Cc1ccccc1C [1,2-dimethylbenzene] + CCCCOC(C)=O
Conditions	excess molar enthalpy [kcal/mol]	excess molar volume [m3/mol]
[3], x2 = 0.1121	–	-2.8e-08
[3], x2 = 0.1983	–	-6.3e-08
[3], x2 = 0.2744	–	-8.2e-08
[3], x2 = 0.3652	–	-9.7e-08
[3], x2 = 0.4665	–	-1.09e-07
[3], x2 = 0.5691	–	-1.08e-07
[3], x2 = 0.606	–	-1.06e-07
[3], x2 = 0.7502	–	-9e-08
[3], x2 = 0.8041	–	-8.3e-08
[3], x2 = 0.9032	–	-5.6e-08
[4], x2 = 0.0707	-0.00215	–
[4], x2 = 0.1859	-0.00296	–
[4], x2 = 0.2214	-0.00478	–
[4], x2 = 0.3134	-0.00621	–
[4], x2 = 0.3539	-0.00652	–
[4], x2 = 0.4773	-0.00693	–
[4], x2 = 0.5868	-0.00717	–
[4], x2 = 0.6462	-0.00696	–
[4], x2 = 0.8002	-0.00526	–
[4], x2 = 0.8364	-0.00454	–

Cc1cccc(C)c1 [1,3-dimethylbenzene]
Conditions	mass density [kg/m3]	refractive index
[1]	851.53	–
[2]	–	1.4946

Cc1cccc(C)c1 [1,3-dimethylbenzene] + CCCCOC(C)=O
Conditions	excess molar enthalpy [kcal/mol]	excess molar volume [m3/mol]
[3], x2 = 0.1509	–	-7.7e-08
[3], x2 = 0.1651	–	-8.3e-08
[3], x2 = 0.2243	–	-9.4e-08
[3], x2 = 0.314	–	-1.27e-07
[3], x2 = 0.3921	–	-1.42e-07
[3], x2 = 0.5651	–	-1.44e-07
[3], x2 = 0.669	–	-1.31e-07
[3], x2 = 0.8091	–	-9.7e-08
[3], x2 = 0.8816	–	-5.2e-08
[3], x2 = 0.9052	–	-4.3e-08
[4], x2 = 0.1568	0.00237	–
[4], x2 = 0.1886	0.00332	–
[4], x2 = 0.2879	0.00409	–
[4], x2 = 0.4265	0.00523	–
[4], x2 = 0.4818	0.00528	–
[4], x2 = 0.5375	0.00554	–
[4], x2 = 0.6365	0.00559	–
[4], x2 = 0.7881	0.00457	–
[4], x2 = 0.8286	0.0043	–
[4], x2 = 0.9169	0.00284	–

Cc1ccc(C)cc1 [1,4-dimethylbenzene]
Conditions	mass density [kg/m3]	refractive index
[1]	847.91	–
[2]	–	1.4879

c1ccccc1 [benzene]
Conditions	mass density [kg/m3]	refractive index
[1]	862.93	–
[2]	–	1.4921

CCCCOC(C)=O [butyl ethanoate]
Conditions	mass density [kg/m3]	refractive index
[1]	865.45	–
[2]	–	1.3908

CCCCOC(C)=O [butyl ethanoate] + C1CCCCC1
Conditions	excess molar enthalpy [kcal/mol]	excess molar volume [m3/mol]
[3], x1 = 0.1062	–	3.47e-07
[3], x1 = 0.1575	–	4.35e-07
[3], x1 = 0.223	–	5.21e-07
[3], x1 = 0.3004	–	6.04e-07
[3], x1 = 0.4851	–	6.74e-07
[3], x1 = 0.4863	–	6.85e-07
[3], x1 = 0.5412	–	6.54e-07
[3], x1 = 0.6489	–	6.07e-07
[3], x1 = 0.735	–	4.98e-07
[3], x1 = 0.7661	–	4.06e-07
[3], x1 = 0.8854	–	1.95e-07
[4], x1 = 0.1409	0.195	–
[4], x1 = 0.1975	0.256	–
[4], x1 = 0.2672	0.307	–
[4], x1 = 0.3389	0.333	–
[4], x1 = 0.4035	0.331	–
[4], x1 = 0.4961	0.3	–
[4], x1 = 0.5517	0.268	–
[4], x1 = 0.6466	0.205	–
[4], x1 = 0.7965	0.112	–
[4], x1 = 0.8311	0.0947	–
[4], x1 = 0.9061	0.0565	–

CCCCOC(C)=O [butyl ethanoate] + Cc1ccc(C)cc1
Conditions	excess molar enthalpy [kcal/mol]	excess molar volume [m3/mol]
[3], x1 = 0.0881	–	-8e-08
[3], x1 = 0.163	–	-1.59e-07
[3], x1 = 0.314	–	-2.47e-07
[3], x1 = 0.3481	–	-2.81e-07
[3], x1 = 0.5001	–	-3.16e-07
[3], x1 = 0.6164	–	-3.18e-07
[3], x1 = 0.738	–	-2.82e-07
[3], x1 = 0.7871	–	-2.64e-07
[3], x1 = 0.8758	–	-2.21e-07
[3], x1 = 0.9179	–	-1.71e-07
[4], x1 = 0.0722	-0.00356	–
[4], x1 = 0.1892	-0.00856	–
[4], x1 = 0.3182	-0.0114	–
[4], x1 = 0.359	-0.0122	–
[4], x1 = 0.4828	-0.0138	–
[4], x1 = 0.6364	-0.0136	–
[4], x1 = 0.6512	-0.0136	–
[4], x1 = 0.7888	-0.0107	–
[4], x1 = 0.8394	-0.00882	–
[4], x1 = 0.9169	-0.00545	–

CCCCOC(C)=O [butyl ethanoate] + Cc1ccccc1
Conditions	excess molar enthalpy [kcal/mol]	excess molar volume [m3/mol]
[3], x1 = 0.055	–	-1.9e-08
[3], x1 = 0.1581	–	-6e-08
[3], x1 = 0.2744	–	-8.2e-08
[3], x1 = 0.442	–	-1e-07
[3], x1 = 0.5243	–	-1.03e-07
[3], x1 = 0.6231	–	-1.02e-07
[3], x1 = 0.7619	–	-8.9e-08
[3], x1 = 0.849	–	-6.9e-08
[3], x1 = 0.9052	–	-5.1e-08
[4], x1 = 0.152	-0.00698	–
[4], x1 = 0.1873	-0.0086	–
[4], x1 = 0.2873	-0.012	–
[4], x1 = 0.3922	-0.0136	–
[4], x1 = 0.4465	-0.0143	–
[4], x1 = 0.502	-0.0148	–
[4], x1 = 0.543	-0.0151	–
[4], x1 = 0.6	-0.0148	–
[4], x1 = 0.7435	-0.0124	–
[4], x1 = 0.8705	-0.0086	–
[4], x1 = 0.8898	-0.00765	–

CCCCOC(C)=O [butyl ethanoate] + c1ccccc1
Conditions	excess molar enthalpy [kcal/mol]	excess molar volume [m3/mol]
[3], x1 = 0.0901	–	4.2e-08
[3], x1 = 0.2214	–	7e-08
[3], x1 = 0.3662	–	7.6e-08
[3], x1 = 0.4623	–	6.9e-08
[3], x1 = 0.543	–	6e-08
[3], x1 = 0.6504	–	4.4e-08
[3], x1 = 0.7052	–	3.6e-08
[3], x1 = 0.7601	–	2.8e-08
[3], x1 = 0.8505	–	1.7e-08
[3], x1 = 0.937	–	6e-09
[4], x1 = 0.1269	-0.00179	–
[4], x1 = 0.2523	-0.00335	–
[4], x1 = 0.4029	-0.005	–
[4], x1 = 0.4575	-0.00543	–
[4], x1 = 0.4958	-0.00586	–
[4], x1 = 0.5619	-0.00631	–
[4], x1 = 0.6599	-0.00655	–
[4], x1 = 0.7279	-0.00621	–
[4], x1 = 0.7714	-0.00586	–
[4], x1 = 0.8714	-0.00488	–

C1CCCCC1 [cyclohexane]
Conditions	mass density [kg/m3]	refractive index
[1]	764.43	–
[2]	–	1.4205

Cc1ccccc1 [toluene]
Conditions	mass density [kg/m3]	refractive index
[1]	852.8	–
[2]	–	1.4885
